Tested on: J774.1
Assay: Inhibition of LPS-induced NO production in mouse J774.1cells after 24 hrs
Format: functional, cell-based
Conditions: J774.1, 24 h

Row | Compound | IC50
1 | C=C[C@H]1[C@@H](OC(=O)c2ccccc2)[C@@H]2[C@@]3(C)C=C(OC(C)=O)C(=O)C(C)(C)[C@@H]3C[C@@H](OC(C)=O)[C@@]2(O)C(=O)[C@@]1(C)O [STAMINOL D] | 92 µM
2 | C=C[C@@]1(C)CC(=O)[C@H]2[C@](O)(C1=O)[C@H](OC(C)=O)C[C@H]1C(C)(C)[C@H](OC(=O)c3ccccc3)[C@H](O)[C@H](OC(=O)c3ccccc3)[C@@]12C [ORTHOSIPHONONE D] | 35 µM
3 | C=C[C@@]1(C)CC(=O)[C@H]2[C@](O)(C1=O)[C@H](OC(C)=O)C[C@H]1C(C)(C)[C@H](O)[C@H](OC(=O)c3ccccc3)[C@H](O)[C@@]12C [ORTHOSIPHONONE C] | 81.8 µM
4 | CNC(=N)NCCC[C@H](N)C(=O)O [TILARGININE] | 35.7 µM

Other lines, results leading:

Row | IC50 | Compound
5 | 61.1 µM | C=C[C@H]1[C@@H](OC(=O)c2ccccc2)[C@H]2[C@](O)(C(=O)[C@@]1(C)O)[C@H](OC(C)=O)C[C@H]1C(C)(C)[C@H](OC(=O)c3ccccc3)[C@H](O)[C@H](OC(C)=O)[C@@]12C [STAMINOL C]
6 | 119 µM | C=C[C@@]1(C)C[C@@H](O)[C@@H]2[C@@]3(C)C=C(OC(C)=O)C(=O)C(C)(C)[C@@H]3C[C@@H](OC(C)=O)[C@@]2(O)[C@H]1OC(C)=O

From ChEMBL document CHEMBL1151178, “Staminane- and isopimarane-type diterpenes from Orthosiphon stamineus of Taiwan and their nitric oxide inhibitory activity” (J Nat Prod, 2004)
